Measured values: patent US20240366555A1, “SELECTIVE MTORC2 INHIBITOR AND USES THEREOF” (ALIAD BIOPHARMA, priority 2021, published 2024)

Target: T1, mTORC1 (Homo sapiens, UniProt P42345)
T1 construct: mTORC1 was isolated by co-immunoprecipitation using Flag antibody; made in house; host or cells: HEK 293T transfected with Flag-Raptor
Assay: In vitro mTORC1 kinase assay (GST-S6K Thr389 phosphorylation, immunoblot)
Assay type: biochemical
Protocol: In order to investigate the effect on mTORC1 activity of norathyriol, in vitro mTORC1 kinase assay was performed. After introducing Flag-Raptor into a human cell line 293T, mTORC1 was isolated by co-immunoprecipitation using Flag antibody. In addition, the activity of the isolated mTORC1 complex was evaluated by measuring phosphorylation of GST-S6K Thr389, which is a selective substrate of mTORC1, by immunoblot analysis. In the control group in which Flag-Raptor was not introduced, GST-S6K Thr389 phosphorylation was almost not measured. […] Therefore, it was judged that GST-S6K Thr389 phosphorylation measured in the in vitro mTORC1 kinase assay was generated by mTORC1. In order to evaluate the inhibitory effect of norathyriol on mTORC1 activity, norathyriol was pretreated for 15 minutes, and then in vitro mTORC1 kinase assay was carried out.
More specifically, the HEK 293T cells were cultured in a DMEM culture medium in which 10% heat inactivated FBS+1× Glutamax was added. 8×10^5 HEK 293T cells were seeded in a 100 mm culture dish, and then they were cultured for 1 day. After mixing 42 μl Lipofectamine, 21 μl plus reagent, and 21 μg Flag-Raptor plasmid DNA to 1 ml OPTI-MEM, it was shaken at a room temperature for 25 minutes to prepare a transfection DNA mixture. The transfection DNA mixture was slowly treated on the cells drop by drop, and after culturing for 5 hours, the culture medium was replaced with a new culture medium. […] The protein concentration of the cell lysate was determined with BCA protein assay kit (Thermo Fisher Scientific). […] Thr389 phosphorylation of GST-S6K1, which is a substrate of mTORC1, was measured by performing immunoblot analysis using phospho Thr389 p70 S6 kinase antibody (#9205S, Cell Signaling) and GST antibody (#A190-122A, Bethyl Laboratories). […]

How did the “GST-S6K Thr389 phosphorylation” value (20 μM, 40 μM and 80 μM, FIG. 6c) turn out when `O=c1c2cc(O)c(O)cc2oc2cc(O)cc(O)c12` [norathyriol, 1,3,6,7-tetrahydroxy-9H-xanthen-9-one] was run?
Its value is “not reduced at a significant level”.

And the IC50 (in vitro mTORC1 kinase assay)?
Its IC50 is greater than 80 µM.
